Target: T1, DDX3 (Homo sapiens, UniProt O00571)
T1 construct: gene DDX3X; full length, His-tagged DDX3
Assay: SPR (Biacore T200) with immobilized purified His-DDX3; also malachite green ATPase inhibition at […]
Format: binding

T1 sequence (O00571 whole entry): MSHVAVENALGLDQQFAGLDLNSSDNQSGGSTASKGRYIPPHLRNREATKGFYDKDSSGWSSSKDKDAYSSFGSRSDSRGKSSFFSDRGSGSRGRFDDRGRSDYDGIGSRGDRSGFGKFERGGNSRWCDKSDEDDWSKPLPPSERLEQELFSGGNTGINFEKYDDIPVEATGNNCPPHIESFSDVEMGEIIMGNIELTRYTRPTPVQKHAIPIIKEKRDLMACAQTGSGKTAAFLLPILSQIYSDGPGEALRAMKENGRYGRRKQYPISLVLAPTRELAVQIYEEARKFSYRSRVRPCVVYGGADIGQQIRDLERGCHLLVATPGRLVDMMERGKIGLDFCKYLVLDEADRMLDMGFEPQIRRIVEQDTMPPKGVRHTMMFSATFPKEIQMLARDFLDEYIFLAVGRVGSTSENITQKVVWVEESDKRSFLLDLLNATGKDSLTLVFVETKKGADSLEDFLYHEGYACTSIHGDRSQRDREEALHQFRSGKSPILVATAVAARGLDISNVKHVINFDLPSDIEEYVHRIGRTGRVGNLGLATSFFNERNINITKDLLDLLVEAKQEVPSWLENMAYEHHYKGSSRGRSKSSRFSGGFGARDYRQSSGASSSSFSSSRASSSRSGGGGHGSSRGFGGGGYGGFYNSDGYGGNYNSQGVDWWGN

O=C(/C=C/c1ccc(O)cc1)Nc1ccc(O)cc1C(=O)O [AVN A, Avenanthramide A]
Kd: 8.8 µM

— PMC6685981, “Avenanthramide A triggers potent ROS-mediated anti-tumor effects in colorectal cancer by directly targeting DDX3” (Cell Death & Disease, 2019)
